What was measured:
GST-JAK1(866-1154) = molecular target: T1, GST-JAK1(866-1154) (Homo sapiens, UniProt P23458); assay: EPK JAK-family kinases profiling assay (Caliper mobility shift), JAK1; format: biochemical; details: ATP 40 μM, 50 nM kinase
T1 construct: GST-JAK1(866-1154); made in house
How it was run: (§1)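 Turnover was read as substrate/product ratio after mobility-shift capillary-like separation of each reaction, run for 60 min at 30 °C with GST-tagged kinase domain, labelled peptide and ATP, and terminated with EDTA stop buffer.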

GST-JAK2(808-1132) = molecular target: T2, GST-JAK2(808-1132) (Homo sapiens, UniProt O60674); assay: EPK JAK-family kinases profiling assay (Caliper mobility shift), JAK2; format: biochemical; details: ATP 20 μM, 1.8 nM kinase
T2 construct: GST-JAK2(808-1132); purchased Invitrogen (Carlsbad, USA) #4288
How it was run: as §1

GST-JAK3(811-1124) = molecular target: T3, GST-JAK3(811-1124) (Homo sapiens, UniProt P52333); assay: EPK JAK-family kinases profiling assay (Caliper mobility shift), JAK3; format: biochemical; details: ATP 80 μM, 6 nM kinase
T3 construct: GST-JAK3(811-1124); made in house
How it was run: as §1

GST-TYK2(888-1187) = molecular target: T4, GST-TYK2(888-1187) (Homo sapiens, UniProt P29597); assay: EPK JAK-family kinases profiling assay (Caliper mobility shift), TYK2; format: biochemical; details: ATP 30 μM, 40 nM kinase
T4 construct: GST-TYK2(888-1187); made in house
T4 sequence (P29597 888-1187): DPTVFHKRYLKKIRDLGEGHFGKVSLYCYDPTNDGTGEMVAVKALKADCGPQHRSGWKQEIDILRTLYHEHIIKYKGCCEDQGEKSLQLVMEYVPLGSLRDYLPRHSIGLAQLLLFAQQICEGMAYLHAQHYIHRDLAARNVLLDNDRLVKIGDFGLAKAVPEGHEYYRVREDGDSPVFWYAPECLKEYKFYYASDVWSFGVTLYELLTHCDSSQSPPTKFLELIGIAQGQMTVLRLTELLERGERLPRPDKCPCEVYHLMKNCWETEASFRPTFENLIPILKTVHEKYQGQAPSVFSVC
How it was run: as §1

[1] = system: JAK/STAT pathway (JAK1/JAK2-dependent nuclear translocation of STAT1-GFP); assay: Inhibition of the JAK/STAT pathway: IFN-γ stimulated nuclear translocation of STAT1-GFP in HT1080 fibrosarcoma cells; format: cell-based; details: Homo sapiens, HT-1080; HT1080 STAT1-GFP cells, 100 ng/ml IFN-γ 2 hours, compound added 30 min before; read-out: STAT1translo IC50
How it was run: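 HT1080 cells stably expressing STAT1-GFP, compounds added 30 min before IFN-γ stimulation at final 10 μM down to 0.003 μM (0.1% DMSO). Nuclear-cytoplasmic GFP intensity differential quantified by automated imaging with Hoechst nuclear mask, ≥1000 cells per well, averaged per well.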

T3 sequence (P52333 811-1124): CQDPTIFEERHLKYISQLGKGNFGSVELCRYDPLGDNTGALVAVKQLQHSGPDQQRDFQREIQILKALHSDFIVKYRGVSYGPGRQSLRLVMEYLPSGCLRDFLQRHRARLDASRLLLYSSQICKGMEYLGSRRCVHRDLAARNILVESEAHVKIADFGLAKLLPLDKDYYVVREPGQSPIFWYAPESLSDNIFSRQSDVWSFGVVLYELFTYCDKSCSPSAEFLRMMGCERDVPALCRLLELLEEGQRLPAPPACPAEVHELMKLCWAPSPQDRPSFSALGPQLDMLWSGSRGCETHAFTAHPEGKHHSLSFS
T2 sequence (O60674 808-1132): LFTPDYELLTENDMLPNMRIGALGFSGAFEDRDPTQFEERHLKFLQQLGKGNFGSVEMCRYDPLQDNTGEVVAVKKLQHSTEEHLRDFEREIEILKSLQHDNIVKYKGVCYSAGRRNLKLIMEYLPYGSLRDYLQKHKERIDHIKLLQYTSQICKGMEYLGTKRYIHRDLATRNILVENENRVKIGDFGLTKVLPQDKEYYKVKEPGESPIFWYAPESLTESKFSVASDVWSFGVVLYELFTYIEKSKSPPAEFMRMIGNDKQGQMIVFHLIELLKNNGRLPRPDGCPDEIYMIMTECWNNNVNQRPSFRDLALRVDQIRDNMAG
T1 sequence (P23458 866-1154): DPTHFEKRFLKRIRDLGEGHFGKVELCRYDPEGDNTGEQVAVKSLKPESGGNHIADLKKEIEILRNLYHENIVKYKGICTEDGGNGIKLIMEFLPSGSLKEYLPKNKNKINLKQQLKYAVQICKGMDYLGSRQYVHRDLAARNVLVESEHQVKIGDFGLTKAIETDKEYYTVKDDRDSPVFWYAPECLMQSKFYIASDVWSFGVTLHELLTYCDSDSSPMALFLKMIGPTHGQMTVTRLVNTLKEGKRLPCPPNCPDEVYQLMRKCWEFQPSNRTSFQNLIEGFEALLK

Structure (SMILES) | IC50 (GST-JAK1(866-1154)) | IC50 (GST-JAK2(808-1132)) | IC50 (GST-JAK3(811-1124)) | IC50 (GST-TYK2(888-1187)) | IC50 [1]
Cc1cc(-c2cnc3cccc(-c4cc(F)c(CN5CCS(=O)(=O)CC5)c(F)c4)c3n2)cnc1C(=O)N(C)CCN(C)C [Example 113, 5-{8-[4-(1,1-Dioxido-thiomorpholin-4-ylmethyl)-3,5-difluoro-phenyl]-quinoxalin-2-yl}-3-methyl-pyridine-2-carboxylic acid (2-dimethylamino-ethyl)-methyl-amide] | 615 nM | 28.5 nM | 3300 nM | 1150 nM | 1940 nM
Cc1cc(-c2cccc3ncc(-c4cnn(CCCN5CCOCC5)c4)nc23)ccc1C(=O)N1CCOCC1 [Example 114, (2-Methyl-4-{3-[1-(3-morpholin-4-yl-propyl)-1H-pyrazol-4-yl]-quinoxalin-5-yl}-phenyl)-morpholin-4-yl-methanone] | 250 nM | 11.5 nM | 1650 nM | 345 nM | 6380 nM
COCCn1cc(-c2cnc3cccc(-c4cc(F)c(CN5CCOCC5)c(F)c4)c3n2)cn1 [Example 115, 8-(3,5-Difluoro-4-morpholin-4-ylmethyl-phenyl)-2-[1-(2-methoxy-ethyl)-1H-pyrazol-4-yl]-quinoxaline] | 72.5 nM | 9.3 nM | 1600 nM | 480 nM | 1440 nM
Fc1cc(-c2cccc3ncc(-c4cnn(C5CCOCC5)c4)nc23)cc(F)c1CN1CCOCC1 [Example 117, 8-(3,5-Difluoro-4-morpholin-4-ylmethyl-phenyl)-2-[1-(tetrahydro-pyran-4-yl)-1H-pyrazol-4-yl]-quinoxaline] | 76.5 nM | < 3 nM | 1040 nM | 125 nM | 60 nM
O=C1CN(Cc2c(F)cc(-c3cccc4ncc(-c5cnn(C6CCOCC6)c5)nc34)cc2F)CCN1 [Example 118, 4-(2,6-Difluoro-4-{3-[1-(tetrahydro-pyran-4-yl)-1H-pyrazol-4-yl]-quinoxalin-5-yl}-benzyl)-piperazin-2-one] | 470 nM | 25 nM | > 10000 nM | 955 nM | 360 nM
O=C(c1c(F)cc(-c2cccc3ncc(-c4cnn(C5CCOCC5)c4)nc23)cc1F)N1CCOCC1 [Example 119, (2,6-Difluoro-4-{3-[1-(tetrahydro-pyran-4-yl)-1H-pyrazol-4-yl]-quinoxalin-5-yl}-phenyl)-morpholin-4-yl-methanone] | 250 nM | 9.85 nM | 6400 nM | 280 nM | 340 nM
COCCN1CCC(n2cc(-c3cnc4cccc(-c5cc(F)c(CN6CCOCC6)c(F)c5)c4n3)cn2)CC1 [Example 123, 8-(3,5-Difluoro-4-morpholin-4-ylmethyl-phenyl)-2-{1-[1-(2-methoxy-ethyl)-piperidin-4-yl]-1H-pyrazol-4-yl}-quinoxaline] | 135 nM | 5 nM | 1950 nM | 170 nM | 180 nM

Reference: patent US8193189B2, “Quinoxaline derivatives as tyrosine kinase activity inhibitors” (Novartis AG, priority 2007, dated 2012)
